# Measured values as given in patent US20250041335A1, “PERCARBONATE COMPOSITIONS AND USES THEREOF” (ThermoLife International, LLC, priority 2023, published 2025).
# Tests used:
# human subject = conditions: person, 2 grams oral, two 000 capsules, just before kayaking
# [1] = label language of products on the market; cited from earlier work
# [2] = 2 grams oral, two 000 capsules, immediately before exercise, all subjects, self-described
# [3] = subject with diabetes, 2 grams oral, self-described
# [4] = ingested before exercise, humans
smiles,measurement,setting,value
O=C([O-])[O-].O=C([O-])[O-].OO.OO.OO.[Na+].[Na+].[Na+].[Na+] [sodium percarbonate],endurance,human subjects; [2],increased
same,lactic acid burn,human subjects; [2],reduced
same,recovery during and after the session of exercise,human subjects; [2],improved
same,strength,human subjects; [2],increased
same,leg ache,"human subjects; person, 2 grams oral before StairMaster cardio session after leg training, self-described",didn't ache as much as usual
same,endurance levels,"human subjects; person, 2 grams oral before StairMaster cardio session after leg training, without breaking fast",definitely better than normal
same,breathing,human subjects; [3],feels good
same,recovery between sets,human subjects; [3],quicker
same,stamina/endurance through back workout and cardio,human subjects; [3],still feel like I could keep going
same,burning in muscles,human subject,did not feel any burning in their muscles
same,endurance,human subject,greatly increased
same,"detrimental gastrointestinal effects (nausea, diarrhea)","humans; doses of 2-10 grams in humans, preferably capsule form","did not result in nausea, diarrhea or any other detrimental gastrointestinal effects"
same,endurance,humans; [4],increased
same,"lactic acid ""burn""",humans; [4],decreased
same,recovery from exercise,humans; [4],improved
same,stimulatory effects like those of caffeine and other stimulants,humans; [4],did not have any appreciable stimulatory effects
same,strength,humans; [4],increased
same,effects of ingestion per product poisoning warning,[1],"may cause bloating, belching, irritation of the mouth and throat, nausea, vomiting, abdominal pain and diarrhea"
